Data from patent US11026427B2, “Microbiocidal oxadiazole derivatives” (SYNGENTA PARTICIPATIONS AG, priority 2016, dated 2021).

Legend:
[1] = system: Glomerella lacenarium (Colletotrichum lacenarium); assay: Glomerella lacenarium (Colletotrichum lacenarium) liquid culture / cucumber / preventative (anthracnose); format: cell-based; details: 20 ppm in the applied formulation, growth inhibition measured photometrically, compared to untreated control, read-out: disease control
Description: Mycelia fragments or conidia suspensions of a fungus prepared either freshly from liquid cultures of the fungus or from cryogenic storage, are directly mixed into nutrient broth. DMSO solutions of the test compound (max. 10 mg/ml) are diluted with 0.025% Tween20 by a factor of 50 and 10 μl of this solution is pipetted into a microtiter plate (96-well format). The nutrient broth containing the fungal spores/mycelia fragments is then added to give an end concentration of the tested compound. The test plates are incubated in the dark at 24° C. and 96% relative humidity. The inhibition of fungal growth is determined photometrically after 2 to 7 days, depending on the pathosystem, and percent antifungal activity relative to the untreated check is calculated.
Conidia of the fungus from cryogenic storage are directly mixed into nutrient broth (PDB—potato dextrose broth). After placing a (DMSO) solution of test compound into a microtiter plate (96-well format), the nutrient broth containing the fungal spores is added. The test plates are incubated at 24° C. and the inhibition of growth is measured photometrically 3 to 4 days after application.
The following compounds at 20 ppm in the applied formulation give at least 80% disease control in this test when compared to untreated control under the same conditions, which show extensive disease development.

Phakopsora pachyrhizi = Phakopsora pachyrhizi / soybean / leaf disc preventative (Asian soybean rust); format: in vivo; details: foliar, 200 ppm in the applied formulation, compared to untreated control, read-out: disease control
Description: (§1) Leaf disks or leaf segments of various plant species are cut from plants grown in a greenhouse. The cut leaf disks or segments are placed in multiwell plates (24-well format) onto water agar. The leaf disks are sprayed with a test solution before (preventative) or after (curative) inoculation. Compounds to be tested are prepared as DMSO solutions (max. 10 mg/ml) which are diluted to the appropriate concentration with 0.025% Tween20 just before spraying. The inoculated leaf disks or segments are incubated under defined conditions (temperature, relative humidity, light, etc.) according to the respective test system. A single evaluation of disease level is carried out 3 to 14 days after inoculation, depending on the pathosystem. Percent disease control relative to the untreated check leaf disks or segments is then calculated.
Soybean leaf disks are placed on water agar in multiwell plates (24-well format) and sprayed with the formulated test compound diluted in water. One day after application leaf discs are inoculated by spraying a spore suspension on the lower leaf surface. After an incubation period in a climate cabinet of 24-36 hours in darkness at 20° C. and 75% rh leaf disc are kept at 20° C. with 12 h light/day and 75% rh. The activity of a compound is assessed as percent disease control compared to untreated when an appropriate level of disease damage appears in untreated check leaf disks (12 to 14 days after application).
(§2) The following compounds at 200 ppm in the applied formulation give at least 80% disease control in this test when compared to untreated control leaf disks under the same conditions, which show extensive disease development.

[2] = system: Puccinia recondita f. Sp. tritici; assay: Puccinia recondita f. sp. tritici / wheat / leaf disc curative (brown rust); format: in vivo; details: foliar, 200 ppm in the applied formulation, compared to untreated control, read-out: disease control
Description: as §1
Wheat leaf segments cv. Kanzler are placed on agar in multiwell plates (24-well format). The leaf segments are then inoculated with a spore suspension of the fungus. Plates were stored in darkness at 19° C. and 75% relative humidity. The formulated test compound diluted in water was applied 1 day after inoculation. The leaf segments were incubated at 19° C. and 75% relative humidity under a light regime of 12 hours light/12 hours darkness in a climate cabinet and the activity of a compound was assessed as percent disease control compared to untreated when an appropriate level of disease damage appears in untreated check leaf segments (6 to 8 days after application).
as §2

[3] = system: Puccinia recondita f. Sp. tritici; assay: Puccinia recondita f. sp. tritici / wheat / leaf disc preventative (brown rust); format: in vivo; details: foliar, 200 ppm in the applied formulation, compared to untreated control, read-out: disease control
Description: as §1, with “calculated. Wheat leaf segments cv. Kanzler were placed on agar in multiwell plates (24-well format) and sprayed with the formulated test compound diluted in water. The leaf disks were inoculated with a spore suspension of the fungus 1 day after application. The inoculated leaf segments were incubated at 19° C. and 75% relative humidity (rh) under a light regime of 12 hours light/12 hours darkness in a climate cabinet and the activity of a compound was assessed as percent disease control compared to untreated when an appropriate level of disease damage appears in untreated check leaf segments (7 to 9 days after application). The following compounds at 200 ppm in the applied formulation give at least 80% disease control in this test when compared to untreated control leaf disks under the same conditions, which show extensive disease development.” for “calculated.”

Structure (SMILES)	melting point [°C]	inhibition of growth at 20 ppm [1] [%]	pest or weed control at 200 ppm (Phakopsora pachyrhizi) [%]	pest or weed control at 200 ppm [2] [%]	pest or weed control at 200 ppm [3] [%]
CCCCC(=O)c1ccc(-c2noc(C(F)(F)F)n2)cc1 [Compound 1.5, 1-[4-[5-(trifluoromethyl)-1,2,4-oxadiazol-3-yl]phenyl]pentan-1-one]	57 to 61	≥ 80	–	–	–
COc1ccc(C(=O)c2ccc(-c3noc(C(F)(F)F)n3)cc2)cn1 [Compound 1.15, (6-methoxy-3-pyridyl)-[4-[5-(trifluoromethyl)-1,2,4-oxadiazol-3-yl]phenyl]methanone]	105 to 110	≥ 80	≥ 80	–	–
CCOC(=O)c1cnn(CC(=O)c2ccc(-c3noc(C(F)(F)F)n3)cc2)c1 [Compound 1.19, ethyl 1-[2-oxo-2-[4-[5-(trifluoromethyl)-1,2,4-oxadiazol-3-yl]phenyl]ethyl]pyrazole-4-carboxylate]	153.6 to 156.1	–	–	–	–
O=C(c1ccc(-c2noc(C(F)(F)F)n2)cc1)c1ncc(C(F)(F)F)s1 [Compound 1.21, [4-[5-(trifluoromethyl)-1,2,4-oxadiazol-3-yl]phenyl]-[5-(trifluoromethyl)thiazol-2-yl]methanone]	90 to 94	–	–	–	–
CCOC(=O)c1cc(C(=O)c2ccc(-c3noc(C(F)(F)F)n3)cc2)on1 [Compound 1.22, ethyl 5-[4-[5-(trifluoromethyl)-1,2,4-oxadiazol-3-yl]benzoyl]isoxazole-3-carboxylate]	197 to 200	≥ 80	–	–	–
O=C(c1ccc(-c2noc(C(F)(F)F)n2)cc1)c1cnc(C(F)(F)F)s1 [Compound 1.23, [4-[5-(trifluoromethyl)-1,2,4-oxadiazol-3-yl]phenyl]-[2-(trifluoromethyl)thiazol-5-yl]methanone]	126 to 132	–	–	–	–
CCOC(=O)c1csc(C(=O)c2ccc(-c3noc(C(F)(F)F)n3)cc2)n1 [Compound 1.25, ethyl 2-[4-[5-(trifluoromethyl)-1,2,4-oxadiazol-3-yl]benzoyl]thiazole-4-carboxylate]	78 to 82	–	–	–	–
O=C(c1ccc(-c2noc(C(F)(F)F)n2)cc1)c1cnn(C(F)(F)F)c1 [Compound 1.26, [4-[5-(trifluoromethyl)-1,2,4-oxadiazol-3-yl]phenyl]-[1-(trifluoromethyl)pyrazol-4-yl]methanone]	98 to 102	–	≥ 80	–	–
O=C(c1ccc(-c2noc(C(F)(F)F)n2)cc1)c1ccc(F)cc1F [Compound 1.28, (2,4-difluorophenyl)-[4-[5-(trifluoromethyl)-1,2,4-oxadiazol-3-yl]phenyl]methanone]	92 to 95	≥ 80	≥ 80	–	–
O=C(c1ccc(-c2noc(C(F)(F)F)n2)cc1)c1cccc(OC(F)F)c1 [Compound 1.29, [3-(difluoromethoxy)phenyl]-[4-[5-(trifluoromethyl)-1,2,4-oxadiazol-3-yl]phenyl]methanone]	85 to 88	≥ 80	≥ 80	–	–
OC(c1ccc(-c2noc(C(F)(F)F)n2)cc1)c1ccc(F)cc1F (stereo not drawn) [Compound 2.15, (2,4-difluorophenyl)-[4-[5-(trifluoromethyl)-1,2,4-oxadiazol-3-yl]phenyl]methanol]	–	≥ 80	≥ 80	–	≥ 80
Cc1ccc(C(O)c2ccc(-c3noc(C(F)(F)F)n3)cc2)nc1 (stereo not drawn) [Compound 2.21, (5-methyl-2-pyridyl)-[4-[5-(trifluoromethyl)-1,2,4-oxadiazol-3-yl]phenyl]methanol]	–	–	–	≥ 80	≥ 80
C=CCC(O)(c1ccc(-c2noc(C(F)(F)F)n2)cc1)c1cc(C)no1 (stereo not drawn) [Compound 2.23, 1-(3-methylisoxazol-5-yl)-1-[4-[5-(trifluoromethyl)-1,2,4-oxadiazol-3-yl]phenyl]but-3-en-1-ol]	–	–	–	≥ 80	–
Cc1cc(C(O)(c2ccc(-c3noc(C(F)(F)F)n3)cc2)C(C)C)on1 (stereo not drawn) [Compound 2.29, 2-methyl-1-(3-methylisoxazol-5-yl)-1-[4-[5-(trifluoromethyl)-1,2,4-oxadiazol-3-yl]phenyl]propan-1-ol]	–	–	–	–	≥ 80

Further lines, with some results ahead:

melting point [°C]	Structure (SMILES)	inhibition of growth at 20 ppm [1] [%]	pest or weed control at 200 ppm (Phakopsora pachyrhizi) [%]	pest or weed control at 200 ppm [2] [%]	pest or weed control at 200 ppm [3] [%]
92 to 93	CCOC(=O)c1cnc(C(=O)c2ccc(-c3noc(C(F)(F)F)n3)cc2)nc1C [Compound 1.31, ethyl 4-methyl-2-[4-[5-(trifluoromethyl)-1,2,4-oxadiazol-3-yl]benzoyl]pyrimidine-5-carboxylate]	≥ 80	–	–	–
68 to 74	O=C(c1ccc(-c2noc(C(F)(F)F)n2)cc1)c1cscn1 [Compound 1.32, thiazol-4-yl-[4-[5-(trifluoromethyl)-1,2,4-oxadiazol-3-yl]phenyl]methanone]	≥ 80	≥ 80	–	–
116 to 120	Cc1ncc(C(=O)c2ccc(-c3noc(C(F)(F)F)n3)cc2)s1 [Compound 1.34, (2-methylthiazol-5-yl)-[4-[5-(trifluoromethyl)-1,2,4-oxadiazol-3-yl]phenyl]methanone]	≥ 80	–	≥ 80	–
80 to 84	Cc1cncc(C(=O)c2ccc(-c3noc(C(F)(F)F)n3)cc2)c1 [Compound 1.36, (5-methyl-3-pyridyl)-[4-[5-(trifluoromethyl)-1,2,4-oxadiazol-3-yl]phenyl]methanone]	–	–	–	–
60 to 75	CC(C)(C)C(O)c1ccc(-c2noc(C(F)(F)F)n2)cc1 (stereo not drawn) [Compound 2.1, 2,2-dimethyl-1-[4-[5-(trifluoromethyl)-1,2,4-oxadiazol-3-yl]phenyl]propan-1-ol]	≥ 80	≥ 80	–	–
79 to 80	N#CC(O)c1ccc(-c2noc(C(F)(F)F)n2)cc1 (stereo not drawn) [Compound 2.11, 2-hydroxy-2-[4-[5-(trifluoromethyl)-1,2,4-oxadiazol-3-yl]phenyl]acetonitrile]	≥ 80	–	–	≥ 80
66 to 68	CCC(O)c1ccc(-c2noc(C(F)(F)F)n2)cc1 (stereo not drawn) [Compound 2.16, 1-[4-[5-(trifluoromethyl)-1,2,4-oxadiazol-3-yl]phenyl]propan-1-ol]	≥ 80	–	–	–
45 to 48	C=CCC(O)c1ccc(-c2noc(C(F)(F)F)n2)cc1 (stereo not drawn) [Compound 2.17, 1-[4-[5-(trifluoromethyl)-1,2,4-oxadiazol-3-yl]phenyl]but-3-en-1-ol]	≥ 80	≥ 80	–	–
118 to 122	CCOC(=O)c1csc(C(O)c2ccc(-c3noc(C(F)(F)F)n3)cc2)n1 (stereo not drawn) [Compound 2.19, ethyl 2-[hydroxy-[4-[5-(trifluoromethyl)-1,2,4-oxadiazol-3-yl]phenyl]methyl]thiazole-4-carboxylate]	–	–	–	≥ 80
